Legend:
[1] = test system: Stevia rebaudiana kaurene oxidase; assay: Ent-kaurenoic acid accumulation in EFSC2386 with different CPRs (activation of KO1); assay type: cell-based, S. cerevisiae; conditions: LC-MS peak area; with KO-1 in EFSC2386
Excerpt: The CEN.PK S. Cerevisiae EFSC2386 strain and the CPRs referred to in this Example are described in the Example 11 (“Identification of S. rebaudiana KAH”). EFSC2386 contained the following integrated genes: Aspergillus nidulans Geranyl geranyl pyrophosphate synthase (GGPPS); Zea mays ent-copalyl diphosphate synthase (CDPS); Stevia rebaudiana ent-kaurene synthase (KS); and Stevia rebaudiana ent-kaurene oxidase (KO). This strain produces ent-kaurenoic acid that was detected by LC-MS analysis.
A collection of cytochrome P450 reductases (CPRs) were expressed and tested in strain EFSC2386; “CPR1” (S. rebaudiana NADPH dependent cytochrome P450 reductase, Kumar et al., Accession no. DQ269454); “ATR1” (A. thaliana CPR, Accession No. CAA23011); “ATR2” (A. thaliana CPR, Accession No. CAA46815); “CPR7” (S. rebaudiana CPR, CPR7 is similar to “CPR1”); “CPR8” (S. rebaudiana CPR, similar to Artemisia annua CPR; and “CPR4” (S. cerevisiae NCP1, Accession No. YHR042W).
Overexpression of the S. cerevisiae endogenous native CPR (referred to as CPR4 in Table 14), and especially overexpression of one of the A. thaliana CPRs namely ATR2, gives good activation of the Stevia rebaudiana kaurene oxidase (the latter called KO1 in Table 14) and results in increased accumulation of ent-kaurenoic acid. See Table 14, which presents the area under curve (AUC) of the ent-kaurenoic acid peak in the LC-MS chromatograms. KO1 is an ent-kaurenoic acid producing yeast control strain without additional overexpression of CPRs.

[2] = test system: S. cerevisiae; assay: Toxicity of intermediates: growth of S. cerevisiae CEN.PK; assay type: cell-based; conditions: growth of CEN.PK transformants
Excerpt: The effect on S. cerevisiae vitality of geranyl geranyl pyrophosphate (GGPP), ent-copalyl diphosphate (CDP) or ent-kaurene production was investigated by expression of Synechococcus sp GGPPS alone (GGPP production), the GGPPS and the 50 amino acid N-terminally truncated Zea mays CDPS (see Example 16) together (CDP production), or the GGPPS, truncated CDPS and the Arabidopsis thaliana kaurene synthase (KS5) together (ent kaurene production) in the laboratory S. cerevisiae strain CEN.PK background. Genes were expressed from 2μ plasmids with GPD promoters driving transcription of truncated CDPS and KS5, while transcription of the GGPPS was driven by the ADH1 promoter. The growth of S. cerevisiae CEN.PK transformed with various combinations of these plasmids (GGPPS alone; GGPPS+truncated CDPS; or GGPPS+truncated CDPS+KS5) or plasmids without gene insertions was observed. GGPP production, and especially CDP production, was toxic to S. cerevisiae when produced as end products.

[3] = RebA solubility in water; assay type: physicochemical
Method: The solubility of RebA determines the concentration that can be used both for the whole-cell approach and for the cell-free approach. Several different solutions of RebA in water were made and left at room temperature for several days. After 24 hours of storage, RebA precipitated at concentrations of 50 mM or higher. Twenty-five mM RebA started to precipitate after 4-5 days, while 10 mM or lower concentrations remained in solution, even when stored at 4° C.

[4] = test system: S. cerevisiae strain BY4741; assay: Steviol-feeding experiment of S. cerevisiae strain BY4741; assay type: cell-based
Method: Further experiments were conducted to determine if the codon-optimized UGT85C2 could reduce 19-SMG accumulation and increase rubusoside and higher glycosylated steviol glycosides production. The production of 19-SMG and rubusoside were analysed in a steviol-feeding experiment of S. cerevisiae strain BY4741 expressing the wild type UGT74G1 as well as the codon-optimized UGT85C2 from high copy (2p) vectors under strong constitutive promoter (GPD1) (vectors P426-GPD and P423-GPD, respectively). Whole culture samples (without cell removal) were taken and boiled in an equal volume of DMSO for total glycosides levels. Intracellular concentrations reported were obtained by pelleting cells, and resuspending in 50% DMSO to the volume of the original culture sample taken, followed by boiling. The “total” glycosides level and the normalized intracellular level then were measured using LC-MS. Using wild type UGT74G1 and wild type UGT85C2, approximately 13.5 μM rubusoside was produced in total with a maximum normalized intracellular concentration of about 7 μM. In contrast, when wild type UGT74G1 and codon-optimized UGT85C2 were used, a maximum of 26 μM rubusoside was produced, or approximately double of what was produced using the wild type UGT85C2. Additionally, the maximum normalized intracellular concentration of rubusoside was 13 μM, again an approximate doubling of what was produced using wild type UGT85C2. […] Consequently, about 10 μM less total 19-SMG was measured for the codon-optimized UGT85C2.

[5] = co-expressed with wild type UGT74G1, steviol feeding

Stevia rebaudiana kaurene oxidase, sequence (as listed by the source): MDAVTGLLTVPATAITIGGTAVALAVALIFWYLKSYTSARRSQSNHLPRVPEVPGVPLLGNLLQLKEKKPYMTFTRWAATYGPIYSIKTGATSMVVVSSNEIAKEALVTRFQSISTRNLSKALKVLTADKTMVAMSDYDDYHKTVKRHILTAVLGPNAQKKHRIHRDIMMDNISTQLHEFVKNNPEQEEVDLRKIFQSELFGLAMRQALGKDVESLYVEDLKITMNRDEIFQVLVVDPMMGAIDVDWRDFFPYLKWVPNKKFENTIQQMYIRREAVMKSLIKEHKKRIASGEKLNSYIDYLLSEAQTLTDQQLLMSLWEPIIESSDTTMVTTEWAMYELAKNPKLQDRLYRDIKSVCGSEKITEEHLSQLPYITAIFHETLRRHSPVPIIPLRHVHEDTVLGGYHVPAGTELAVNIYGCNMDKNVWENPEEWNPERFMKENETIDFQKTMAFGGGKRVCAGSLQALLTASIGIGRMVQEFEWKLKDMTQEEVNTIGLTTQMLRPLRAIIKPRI

Molecule: ATR-2: A. thaliana CPR, Accession No. CAA46815
- Ent-Kaurenoic Acid (AUC) [1]: 29412 AUC

Molecule: CPR-8: S. rebaudiana CPR, similar to Artemisia annua CPR
- Ent-Kaurenoic Acid (AUC) [1]: 12590 AUC

Molecule: C=C1C[C@@]23CC[C@@H]4C(C)(C)CCC[C@@]4(C)[C@@H]2CC[C@@H]1C3 [ent-kaurene]
- toxicity to S. cerevisiae when produced as end product [2]: not be toxic

Molecule: C=C1CC[C@@H]2C(C)(C)CCC[C@@]2(C)[C@@H]1CC/C(C)=C/COP(=O)(O)OP(=O)(O)O [CDP, ent-copalyl diphosphate]
- toxicity to S. cerevisiae when produced as end product [2]: toxic

Molecule: C=C1C[C@@]23CC[C@H]4[C@@](C)(CCC[C@@]4(C)C(=O)O[C@@H]4O[C@H](CO)[C@@H](O)[C@H](O)[C@H]4O)[C@@H]2CC[C@]1(O[C@@H]1O[C@H](CO)[C@@H](O)[C@H](O[C@@H]2O[C@H](CO)[C@@H](O)[C@H](O)[C@H]2O)[C@H]1O[C@@H]1O[C@H](CO)[C@@H](O)[C@H](O)[C@H]1O)C3 [RebA, Rebaudioside A]
- time until precipitation started ([3]; Twenty-five mM RebA in water): 4 to 5 days
- concentration at which RebA precipitated ([3]; water, room temperature, after 24 hours of storage): ≥ 50000 µM
- concentration that remained in solution ([3]; water, several days, even when stored at 4° C.): ≥ 10000 µM

Molecule: CPR-1: S. rebaudiana NADPH dependent cytochrome P450 reductase, Accession no. DQ269454
- Ent-Kaurenoic Acid (AUC) [1]: 14113 AUC

Molecule: CC(C)=CCC/C(C)=C/CC/C(C)=C/CC/C(C)=C/COP(=O)(O)OP(=O)(O)O [GGPP, geranyl geranyl pyrophosphate]
- toxicity to S. cerevisiae when produced as end product [2]: toxic

B1: codon-optimized UGT85C2: UGT85C2 expressed from the GeneArt codon-optimized sequence; amino acid sequence unchanged (protein, UniProt Q6VAB0 1-481, looked up)
UDP-glycosyltransferase 85C2: MDAMATTEKKPHVIFIPFPAQSHIKAMLKLAQLLHHKGLQITFVNTDFIHNQFLESSGPHCLDGAPGFRFETIPDGVSHSPEASIPIRESLLRSIETNFLDRFIDLVTKLPDPPTCIISDGFLSVFTIDAAKKLGIPVMMYWTLAACGFMGFYHIHSLIEKGFAPLKDASYLTNGYLDTVIDWVPGMEGIRLKDFPLDWSTDLNDKVLMFTTEAPQRSHKVSHHIFHTFDELEPSIIKTLSLRYNHIYTIGPLQLLLDQIPEEKKQTGITSLHGYSLVKEEPECFQWLQSKEPNSVVYVNFGSTTVMSLEDMTEFGWGLANSNHYFLWIIRSNLVIGENAVLPPELEEHIKKRGFIASWCSQEKVLKHPSVGGFLTHCGWGSTIESLSAGVPMICWPYSWDQLTNCRYICKEWEVGLEMGTKVKRDEVKRLVQELMGEGGHKMRNKAKDWKEKARIAIAPNGSSSLNIDKMVKEITVLARN
- less total 19-SMG than with wild type UGT85C2 [4]: about 10 μM
- maximum intracellular concentration of 19-SMG [4, 5]: 19 µM
- maximum normalized intracellular concentration of rubusoside [4, 5]: 13 µM
- rubusoside produced in total [4, 5]: 26 µM

B2: CPR-4: S. cerevisiae NCP1, Accession No. YHR042W (protein, UniProt P16603 2-691, looked up)
NADPH--cytochrome P450 …: PFGIDNTDFTVLAGLVLAVLLYVKRNSIKELLMSDDGDITAVSSGNRDIAQVVTENNKNYLVLYASQTGTAEDYAKKFSKELVAKFNLNVMCADVENYDFESLNDVPVIVSIFISTYGEGDFPDGAVNFEDFICNAEAGALSNLRYNMFGLGNSTYEFFNGAAKKAEKHLSAAGAIRLGKLGEADDGAGTTDEDYMAWKDSILEVLKDELHLDEQEAKFTSQFQYTVLNEITDSMSLGEPSAHYLPSHQLNRNADGIQLGPFDLSQPYIAPIVKSRELFSSNDRNCIHSEFDLSGSNIKYSTGDHLAVWPSNPLEKVEQFLSIFNLDPETIFDLKPLDPTVKVPFPTPTTIGAAIKHYLEITGPVSRQLFSSLIQFAPNADVKEKLTLLSKDKDQFAVEITSKYFNIADALKYLSDGAKWDTVPMQFLVESVPQMTPRYYSISSSSLSEKQTVHVTSIVENFPNPELPDAPPVVGVTTNLLRNIQLAQNNVNIAETNLPVHYDLNGPRKLFANYKLPVHVRRSNFRLPSNPSTPVIMIGPGTGVAPFRGFIRERVAFLESQKKGGNNVSLGKHILFYGSRNTDDFLYQDEWPEYAKKLDGSFEMVVAHSRLPNTKKVYVQDKLKDYEDQVFEMINNGAFIYVCGDAKGMAKGVSTALVGILSRGKSITTDEATELIKMLKTSGRYQEDVW
- Ent-Kaurenoic Acid (AUC) [1]: 25103 AUC

From patent US12416034B2, “Recombinant production of steviol glycosides” (EVOLVA SA, priority 2011, dated 2025)
